Values after ≈ are worked out from the molar mass of the structure shown. Like-named read-outs stand apart in the source and are kept apart here.
Assays:
[1] = tested on: thermal and mechanical sensitivities; RS and NOx levels; format: in vivo, Swiss mice; settings: 1 mg kg-1, intragastric route
C. neoformans (ATCC H99) = assay: microbe, parasite or virus in culture; format: cell-based; settings: Cryptococcus neoformans
α-synuclein = α-synuclein (Homo sapiens, UniProt P37840); format: cell-based, Saccharomyces cerevisiae; settings: 0.1 mM, without fermentation
Drosophila melanogaster = settings: 48 hours
[2] = 2 mg/ml
[3] = tested on: MV released from growth-plate femurs chondrocytes; format: biochemical, chicken
[4] = tested on: learning and memory behavior; format: in vivo, Swiss mice; settings: 10mg/kg, intragastrically
[5] = target: TRPV1 channel heterologously expressed in HEK293 cells (Homo sapiens, UniProt Q8NER1); assay: cell-based; settings: HEK293, read-out: % inhibition of capsaicin-induced TRPV1 currents
TRPV1 channel heterologously expressed in HEK293 cells, sequence (Q8NER1 whole entry): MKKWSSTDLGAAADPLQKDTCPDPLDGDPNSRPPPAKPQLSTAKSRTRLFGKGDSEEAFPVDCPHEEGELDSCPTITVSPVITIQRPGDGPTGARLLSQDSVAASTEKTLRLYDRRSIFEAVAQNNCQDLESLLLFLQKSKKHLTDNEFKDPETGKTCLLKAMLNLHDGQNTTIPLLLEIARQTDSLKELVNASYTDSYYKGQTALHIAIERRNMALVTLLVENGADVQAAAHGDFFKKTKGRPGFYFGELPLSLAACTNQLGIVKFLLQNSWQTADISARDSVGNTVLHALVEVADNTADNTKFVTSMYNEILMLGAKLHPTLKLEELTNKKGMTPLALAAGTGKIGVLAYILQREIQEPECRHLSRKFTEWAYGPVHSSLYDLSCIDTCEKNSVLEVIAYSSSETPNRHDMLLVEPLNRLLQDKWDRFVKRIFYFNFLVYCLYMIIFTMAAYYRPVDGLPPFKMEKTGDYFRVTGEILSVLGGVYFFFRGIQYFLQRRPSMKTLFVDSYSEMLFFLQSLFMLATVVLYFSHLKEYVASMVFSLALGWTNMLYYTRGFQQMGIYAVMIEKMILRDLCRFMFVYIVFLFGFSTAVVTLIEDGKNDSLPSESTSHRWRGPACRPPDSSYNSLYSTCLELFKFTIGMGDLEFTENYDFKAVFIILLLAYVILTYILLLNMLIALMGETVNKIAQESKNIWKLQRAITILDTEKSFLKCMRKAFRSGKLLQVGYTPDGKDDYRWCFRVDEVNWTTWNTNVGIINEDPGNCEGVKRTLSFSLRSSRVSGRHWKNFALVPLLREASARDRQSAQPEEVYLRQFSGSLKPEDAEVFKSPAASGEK

[6] = tested on: glycated human erythrocyte; format: cell-based
K562 = format: cell-based
[7] = target: dihydroorotate dehydrogenase from Schistosoma mansoni (SmDHODH) (Schistosoma mansoni, UniProt G4VFD7)
dihydroorotate dehydrogenase from Schistosoma mansoni (SmDHODH), sequence (G4VFD7 23-379 limits assumed): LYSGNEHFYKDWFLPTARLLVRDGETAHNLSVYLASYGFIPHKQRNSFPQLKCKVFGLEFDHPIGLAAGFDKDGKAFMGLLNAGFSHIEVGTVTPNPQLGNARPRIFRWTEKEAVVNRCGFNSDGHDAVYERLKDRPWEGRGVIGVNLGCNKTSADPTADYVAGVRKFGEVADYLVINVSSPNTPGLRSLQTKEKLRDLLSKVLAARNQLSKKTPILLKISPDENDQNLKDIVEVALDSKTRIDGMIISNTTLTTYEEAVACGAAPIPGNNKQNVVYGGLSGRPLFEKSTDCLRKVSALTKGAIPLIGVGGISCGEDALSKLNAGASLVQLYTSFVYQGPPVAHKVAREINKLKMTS

gill V(H+)-ATPase = format: biochemical, Macrobrachium amazonicum; settings: read-out: constant enzyme inhibitor, 25 °C
[8] = tested on: CE-AρBza serine proteases; format: biochemical, Canavalia ensiformis
[9] = tested on: Leishmania braziliensis old yellow enzyme (LbOYE); format: biochemical
S. saprophyticus = format: cell-based
IGR39 cells = format: cell-based
[10] = target: Ca2+-dependent BK channel (Homo sapiens, UniProt Q12791); format: cell-based
Ca2+-dependent BK channel, sequence (Q12791 whole entry): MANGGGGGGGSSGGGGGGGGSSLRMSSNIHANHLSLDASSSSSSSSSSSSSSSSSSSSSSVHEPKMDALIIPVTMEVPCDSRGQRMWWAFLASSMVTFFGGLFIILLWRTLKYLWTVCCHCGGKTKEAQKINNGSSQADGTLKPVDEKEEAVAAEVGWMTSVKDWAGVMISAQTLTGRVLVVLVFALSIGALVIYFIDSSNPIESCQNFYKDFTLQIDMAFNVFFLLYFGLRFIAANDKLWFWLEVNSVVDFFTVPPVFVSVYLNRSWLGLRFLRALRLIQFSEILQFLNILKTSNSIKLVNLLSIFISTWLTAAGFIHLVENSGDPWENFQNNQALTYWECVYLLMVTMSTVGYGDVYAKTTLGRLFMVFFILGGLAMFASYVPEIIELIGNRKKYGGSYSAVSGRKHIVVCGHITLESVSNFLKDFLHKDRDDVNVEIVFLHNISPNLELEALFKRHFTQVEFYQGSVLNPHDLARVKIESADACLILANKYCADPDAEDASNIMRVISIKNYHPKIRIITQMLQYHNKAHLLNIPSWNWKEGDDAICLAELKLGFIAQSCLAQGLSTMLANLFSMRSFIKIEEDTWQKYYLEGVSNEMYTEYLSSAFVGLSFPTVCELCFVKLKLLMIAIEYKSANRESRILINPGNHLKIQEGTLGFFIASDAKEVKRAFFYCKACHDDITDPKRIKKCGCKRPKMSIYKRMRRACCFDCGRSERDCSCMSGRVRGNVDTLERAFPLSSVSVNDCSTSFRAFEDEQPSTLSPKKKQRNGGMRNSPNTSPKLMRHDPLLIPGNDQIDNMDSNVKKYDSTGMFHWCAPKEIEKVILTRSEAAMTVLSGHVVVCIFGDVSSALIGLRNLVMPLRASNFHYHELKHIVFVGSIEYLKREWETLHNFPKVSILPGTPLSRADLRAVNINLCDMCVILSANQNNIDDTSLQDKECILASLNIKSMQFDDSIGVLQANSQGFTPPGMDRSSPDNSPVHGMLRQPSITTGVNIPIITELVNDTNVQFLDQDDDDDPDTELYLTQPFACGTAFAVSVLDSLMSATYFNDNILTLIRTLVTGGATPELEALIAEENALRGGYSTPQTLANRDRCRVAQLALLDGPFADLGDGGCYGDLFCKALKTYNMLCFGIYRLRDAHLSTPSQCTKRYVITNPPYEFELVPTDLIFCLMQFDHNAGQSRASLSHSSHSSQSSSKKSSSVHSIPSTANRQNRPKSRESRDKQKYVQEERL

[11] = tested on: oral streptococci biofilm; format: cell-based, Streptococcus; settings: all species
rat serum albumin (RSA) = rat serum albumin (RSA) (Rattus norvegicus, UniProt P02770); format: binding; settings: interaction density function method; two cooperative sites
rat serum albumin (RSA), sequence (P02770 25-608): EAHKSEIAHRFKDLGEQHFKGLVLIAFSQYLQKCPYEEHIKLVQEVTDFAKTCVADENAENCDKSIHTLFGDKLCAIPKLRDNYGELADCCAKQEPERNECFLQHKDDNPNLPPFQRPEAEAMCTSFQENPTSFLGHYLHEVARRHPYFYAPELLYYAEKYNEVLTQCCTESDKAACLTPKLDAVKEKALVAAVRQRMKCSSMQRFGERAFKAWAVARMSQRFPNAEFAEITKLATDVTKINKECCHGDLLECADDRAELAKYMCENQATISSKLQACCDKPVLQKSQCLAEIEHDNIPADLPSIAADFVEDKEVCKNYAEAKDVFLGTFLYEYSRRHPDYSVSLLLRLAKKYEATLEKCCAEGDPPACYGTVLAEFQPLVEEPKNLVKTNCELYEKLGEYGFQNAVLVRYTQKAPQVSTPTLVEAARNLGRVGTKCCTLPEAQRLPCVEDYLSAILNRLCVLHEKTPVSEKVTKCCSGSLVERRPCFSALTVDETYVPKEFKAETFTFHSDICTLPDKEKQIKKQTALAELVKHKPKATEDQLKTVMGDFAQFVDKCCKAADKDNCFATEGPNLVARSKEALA

paw edema = settings: in vivo
[12] = tested on: inflammation, nociception and oxidative stress; settings: mouse, in vivo
K562 cells = format: cell-based
LUCENA cells = format: cell-based

Clc1ccc2c([Se]c3ccccc3)ccnc2c1 [4-PSQ, 7-Chloro-4-(phenylselanyl) quinoline]
hypersensitivity [1]: reversed hypersensitivity induced by OXA and aging | RS and NOx levels ([1]; both ages): reduced the RS and NOx levels

CCCSc1ccc2nc(NC(=O)OC)[nH]c2c1 [Albendazole]
MIC (C. neoformans (ATCC H99)): 0.047 to 3.12 µM (≈ 0.0125 to 0.829 µg/mL)

O=C(/C=C/c1ccc(O)c(O)c1)OCCc1ccccc1 [CAPE, phenethyl ester of caffeic acid]
protein aggregation (α-synuclein): did not inhibit

COc1cc2c(c(OC)c1OC)-c1ccc(OC)c(=O)cc1[C@@H](NC(C)=O)CC2 [COL, colchicine]
survival rate (Drosophila melanogaster; 0.001-0.010 mg/mL): did not affect the fly survival rate | TBARS levels (Drosophila melanogaster): elevated in the 0.0025 mg/mL and 0.005 mg/mL groups | reactive species (RS) levels (Drosophila melanogaster): increase in RS levels at concentrations of 0.0025 and 0.005 mg/mL

CC1=C(C(=O)O)N2C(=O)[C@@H](NC(=O)[C@H](N)c3ccccc3)[C@H]2SC1 [Cephalexin]
degradation [2]: highly sucesptible to degradation

c1ccc([C@H]2CN3CCSC3=N2)cc1 [Levamisole]
effectiveness of inhibition of MV activity compared with ouabain [3]: more effective

COc1ccc(Sc2ccc3nsnc3c2)cc1 [MTDZ, 5-((4-methoxyphenyl)thio)benzo[c][1,2,5]thiadiazole]
behavioral changes caused by SCO [4]: attenuated the behavioral changes caused by SCO

CC(C)(O)c1ccccc1CC[C@@H](SCC1(CC(=O)O)CC1)c1cccc(/C=C/c2ccc3ccc(Cl)cc3n2)c1 [Montelukast]
inhibition at 0.1 µM [5]: 62 ± 8%

CO[C@@H]1[C@@H](OC(N)=O)[C@@H](O)[C@H](Oc2ccc3c(O)c(NC(=O)c4ccc(O)c(CC=C(C)C)c4)c(=O)oc3c2C)OC1(C)C [Novobiocin]
inhibition at 0.1 µM [5]: 60 ± 7%

CC(C)c1cccc(C(C)C)c1O [P, propofol]
deformability index (DI) [6]: decreases | erythrocyte elastic modulus (μ) [6]: significant increase

CC(=O)O[C@H]1C[C@@H]2CC[C@@H]3[C@H](CC[C@@]4(C)[C@H]3C[C@H]([N+]3(C)CCCCC3)[C@@H]4OC(C)=O)[C@@]2(C)C[C@@H]1N1CCCCC1 [V, vecuronium]
surface viscosity (η) [6]: increase

NC(=O)NC1NC(=O)NC1=O (centres unmarked) [allantoin]
death caused by cisplatin (K562): reduction

O=C1C(O)=C([C@H]2CC[C@H](c3ccc(Cl)cc3)CC2)C(=O)c2ccccc21 [atovaquone]
inhibition of SmDHODH [7]: in the nanomolar range

CO/C1=C\C(C)=C\[C@@H](C)[C@@H](O)[C@@H](C)C/C(C)=C/C=C/[C@H](OC)[C@@H]([C@@H](C)[C@@H](O)[C@H](C)C2(O)C[C@@H](O)[C@H](C)[C@@H](C(C)C)O2)OC1=O (some centres unmarked) [bafilomycin]
Ki (gill V(H+)-ATPase; Grande river population): 21.2 ± 1.3 nM | Ki (gill V(H+)-ATPase; Tietê river population): 35.1 ± 1.1 nM

N=C(N)c1ccccc1 [benzamidine]
inhibition of CE-AρBza ([8]; BTEE as substrate): 100% | inhibition of CE-AρBza ([8]; L-TAME as substrate): 77%

CC(C)c1cc2c(c(O)c1O)C[C@@]13CCCC(C)(C)[C@@H]1C[C@@H]2O3 [brussonol]
significant inhibition of LbOYE activity [9]: did not show significant inhibition

COC(=O)Nc1nc2ccc(Sc3ccccc3)cc2[nH]1 [fenbendazole]
MIC (C. neoformans (ATCC H99)): 0.047 to 3.12 µM (≈ 0.0141 to 0.935 µg/mL)

COC(=O)Nc1nc2cc(C(=O)c3ccc(F)cc3)ccc2[nH]1 [flubendazole]
MIC (C. neoformans (ATCC H99)): 0.047 to 3.12 µM (≈ 0.0147 to 0.979 µg/mL)

COC(=O)Nc1nc2ccc(C(=O)c3ccccc3)cc2[nH]1 [mebendazole]
MIC (C. neoformans (ATCC H99)): 0.047 to 3.12 µM (≈ 0.0139 to 0.923 µg/mL)

CN(C)C(=N)N=C(N)N [metformin]
interaction with cisplatin (K562 cell line): synergism

C[C@@H]1O[C@@H](O[C@H]2C[C@@H](O)[C@]3(CO)[C@H]4[C@H](O)C[C@]5(C)[C@@H](C6=CC(=O)OC6)CC[C@]5(O)[C@@H]4CC[C@]3(O)C2)[C@H](O)[C@H](O)[C@H]1O [ouabain]
MV activity in the presence of inhibitor ([3]; 31P-NMR and colorimetric techniques): ~95%

CN[C@H](CC(C)C)C(=O)N[C@H]1C(=O)N[C@@H](CC(N)=O)C(=O)N[C@H]2C(=O)N[C@H]3C(=O)N[C@H](C(=O)N[C@H](C(=O)O)c4cc(O)cc(O)c4-c4cc3ccc4O)[C@H](O)c3ccc(c(Cl)c3)Oc3cc2cc(c3O[C@@H]2O[C@H](CO)[C@@H](O)[C@H](O)[C@H]2O[C@H]2C[C@](C)(N)[C@H](O)[C@H](C)O2)Oc2ccc(cc2Cl)[C@H]1O [vancomycin]
reduction of the MIC value in combination (S. saprophyticus): 4 times

DCPIB
Ca2+ influx (IGR39 cells): induces a rapid Ca2+ influx | currents ([10]; IGR37 cells): not in IGR37 cells | currents ([10]; Panc1, MiaPaca2 and IGR39 cells): dramatic increase of currents

N-acetylcysteine [NAC]
concentration shown to inhibit biofilm formation [11]: 12.5 mg/mL

Piperlongumine [PPL]
binding constants (rat serum albumin (RSA)): moderate binding constants

Rhodium chloride [RhCl3]
paw edema (paw edema): able to reduce paw edema

Se-[(2,2-dimethyl-1,3-dioxolan-4-yl) methyl] 4-chlorobenzoselenolate [Se-DMC]
NPSH content [12]: No alteration | RS levels in paw [12]: reduced the RS levels

sodium selenite [Na2SeO3]
proliferation (K562 cells): significant reduction | mitochondrial membrane potential (JC-1) (K562 cells; 24 hours): significant reduction for all concentration | cell viability (MTT) (K562 cells; 48 hours): significant reduced only in 100 μM or 1000 μM | reduction in cell number (LUCENA cells; 1000 μM, 48 hours): 66% | mitochondrial membrane potential (JC-1) (LUCENA cells; 24 hours): only at concentrations of 100 μM and 1000 μM

Source: PMC8551951 (Biophysical Reviews, 2021)
